The subject of experiment [1] is hippocampal NSC (Sox2 positive cell). The experiment in a line: SOX2 positive NSCs in hippocampus of PD mouse brain. It counts as in vivo. Conditions: intranasal 5 mg/kg/day for 28 days (combination: GD3 2 weeks, then GM1 2 weeks). How it is done:
(§1) The acquisition, care, and experimental treatment of animals used in this study were in compliance with the NIH guidelines as published in the Guide for the Care and Use of Laboratory Animals. Gangliosides (GD3 or GM1; 5 mg/kg/day) were infused intranasally (Hanson, et al., J. Vis. Exp. (74) (2013) doi.org/10.3791/4440.) with a small pipette (each […] into the right and left nares twice, or […] per day) into 8-month-old WT (C57B6/J), A53T PD, and GM2S-KO mice daily for 7-28 days. GD3 and GM1 used in this study were isolated from either bovine buttermilk or brains by established procedures (Ariga, et al., J. Biol. Chem. 269, 2667-2675 (1994), Ledeen and Yu, Methods Enzymol. 83, 139-191 (1982), Ren, et al., J. Biol. Chem. 267, 12632-12638 (1992)). Gangliosides, being amphipathic, were easily dissolved in saline. The placebo group received saline infusions. At first, to provide direct evidence for ganglioside administration into brain, mice totally deficient in GM1 (8-month-old GM2S-KO mice) were intranasally administered GM1 (0.5 or 5 mg/kg/day) for 7 days. Brain-delivered GM1 was analyzed by immunohistochemistry and TLC. After confirmation that ganglioside reached the brain of GM2S-KO mice by the intranasal route, 8-month-old A53T PD mice were utilized for ganglioside treatments (28 days). […]

For experiment [2], the system named is 5XFAD mice. The experiment in a line: Buried pellet test (olfactory function) in 5XFAD mice. It counts as in vivo, mouse. To be noted: intranasal 5 mg/kg/day for 8 weeks (combination: GD3 4 weeks, GM1 4 weeks), n=3. The procedure:
To detect olfaction deficiency, the buried pellet test was assessed (FIG. 10A). Bedding tips were set to 3 cm height. The time until mice uncover the food pellet was measured. […] It is believed that GD3 maintains stemness and inhibits further neuronal differentiation such as olfactory neurons. […] The buried pellet test, which relies on the animal's natural tendency to use olfactory cues for foraging, is used to confirm ability to smell (FIG. 10A). The time until mice uncover the food pellet in bedding tips was measured. […] Thus, GD3 has important role in olfactory function (FIG. 12).

Experiment [3] concerns 5XFAD mice. The experiment is described as follows: Whole-body dual-energy X-ray absorptiometry (DXA) in 5XFAD mice. To be noted: intranasal, 8 weeks (combination 4 + 4 weeks). It counts as in vivo, mouse. The procedure:
Bone loss often accelerates with neurodegenerative diseases and during aging. Protecting from bone loss would be complementary to treatments for neurodegenerative diseases. Body composition analyses were measured by dual-energy X-ray absorptiometry (DXA; Kubtec Digimus, KUB Technologies, Stratford, CT, USA). Bone area (cm2), Bone mineral content (BMC, grams) and bone mineral density (BMD, g/cm2) were calculated for the whole body (FIGS. 11A-11C) using the manufacturer's analysis software (Kubtec Digimus). […] Increasing bone density in patients with neurodegenerative diseases, would decrease risk of fracture and increase the quality of life.

For a further experiment, the system named is 5XFAD mouse brain. To be noted: icv 5 mg/kg/day for 7 days; cited from earlier work.
The test system of the next experiment is NSC pools in DG and SVZ. Conditions: icv by micro-osmotic pump, 5 mg/kg/day for 7 days, GD3S-KO mouse; cited from earlier work.
In the next experiment the test system is VDAC1. The experiment in a line: VDAC1 expression in PD mouse brain. Conditions: intranasal 5 mg/kg/day for 28 days. It counts as in vivo. How it is done: as §1
Another experiment addresses T1, aSyn (Homo sapiens, UniProt P37840, A53T).
T1 construct: tissue The Jackson Laboratory 006823; host or cells: brain / substantia nigra of A53T PD transgenic mice
The experiment is described as follows: aSyn levels in A53T PD mouse brain after intranasal gangliosides. Format: in vivo. Conditions: intranasal 5 mg/kg/day for 28 days, 8-month-old A53T PD mice. The procedure: as §1

Experiment [4] has as its system 5XFAD mice. The experiment in a line: Novel object recognition test in 5XFAD mice. It counts as in vivo, mouse. Conditions: intranasal 5 mg/kg/day for 8 weeks (combination: GD3 4 weeks, GM1 4 weeks), 2-month-old 5XFAD mice, n=3. How it is done: FIGS. 9A and 9B illustrate the memory function of intranasal ganglioside treatments. FIG. 9A is a schematic diagram showing the experimental procedure of novel object recognition test. […] Each mouse was placed in an arena, with two identical objects placed at each end of the arena. After 5 min of investigation, mice were returned to their home cage. 24 hours later, one test object was replaced with a novel object, and animals were allowed 5 min for investigation. The time spent exploring each object was recorded. Percentages of exploration time of novel object (memory) are shown in the columns (n=3).
Gangliosides (5 mg/kg/day), GD3, GM1, or GD3-GM1 (GD3 for 4 weeks and GM1 for 4 week) were administered into 2-month-old 5XFAD mice for 8 weeks. To assess the effect of intranasal ganglioside treatment on cognitive function, mice were tested using the novel object recognition test (FIG. 9A). […] These findings indicate that intranasal ganglioside has an important role to enhance hippocampal-dependent learning and memory.

In a further experiment the test system is Neuro 2a cells. The experiment is described as follows: TH mRNA expression in Neuro 2a cells (qPCR). Format: cell-based, mouse. To be noted: 5 mM ganglioside, 24 h. The procedure: (§2) Mouse Neuro-2a neuroblastoma cells (ATCC, Manassas, VA, USA, CCL-131) were maintained in Dulbecco's modified Eagle's medium supplemented with 10% fetal bovine serum, 2 mM glutamine, and penicillin/streptomycin at 37° C., 5% CO2.
Total RNA samples were isolated from substantia nigra of mouse brains or cultured Neuro 2a cells using TRIzol reagent (Life Technologies from Thermo Fisher Scientific). Neuro 2a cells were untreated or treated with 5 mM GD3 or GM1 in B27-supplemented Neuro-basal-A medium for 24 h. cDNAs were synthesized based on the total RNAs as templates using MultiScribe reverse transcriptase (Applied Biosystems, Waltham, MA, USA). qPCR was performed with run RT2 SYBR Green qPCR master mix (QIAGEN, Hilden, Germany) on the CFX96 system (Bio-Rad, Hercules, CA, USA). The relative expression levels of TH were normalized to the actin transcript level. The normalized value from control (WT+saline, or no treated cells) is defined as 1.0. The following primers were used: TH forward, 5′-CACTATGCCCACCCCCAG-3′ (SEQ ID NO:1), reverse: 5′-CGCCGTCCAATGAACCTT-3′ (SEQ ID NO:2); actin forward, 5′-[…]-3′ (SEQ ID NO:3), reverse, 5′-[…]-3′ (SEQ ID NO:4).
A general note: In qPCR the cycle at which signal appears reflects the starting amount.

Another experiment has as its system GM2S. The experiment in a line: GM2S gene expression in PD mouse brain. Format: in vivo. To be noted: intranasal 5 mg/kg/day for 28 days. How it is done: as §1
Experiment [5] relates to tyrosine hydroxylase (TH). The experiment in a line: TH expression at substantia nigra in PD mouse brain. It counts as in vivo. Conditions: intranasal 5 mg/kg/day for 28 days. How it is done: as §1
Another experiment has as its system TH gene promoter. The experiment is described as follows: ChIP assay on TH gene promoter in Neuro 2a cells. Format: cell-based, mouse. To be noted: 5 mM ganglioside, 24 h. How it is done:
as §2
ChIP assays were performed on cell lysates as previously described.31,32,76 Briefly, Neuro 2a cells, untreated or treated with 5 mM GD3 or GM1 for 24 h, were incubated in 1% PFA for 10 min at ambient temperature to crosslink the interacting partners. Cells with the cross-linked complexes were subjected to lysis by sonication with six 20-s pulses at the power scale 7 controlled by a sonicator (Sonic dismembrator model 100, Fisher Scientific). After centrifugation at 15,000×g for 10 min, the supernatants were collected for the following experiments. Immunoprecipitation was carried out with the following specific antibodies bound on protein G-conjugated magnetic beads (Millipore): anti-acetylated histone H3 (Millipore), anti-Nurr1 (R&D Systems), or anti-PITX3 (Thermo Fisher Scientific) antibodies. The amounts of the co-precipitated DNA fragments of TH promoter (+0), the Nurr1 binding site on the TH promoter (TH-NBS), and the PITX3 binding site on TH promoter (TH-PBS) were analyzed by qPCR. After normalization against GAPDH, the value of no treated cells was defined as 1.0. The following primers were used: TH forward, 5′-[…]-3′ (SEQ ID NO:5), reverse, 5′-[…]-3′ (SEQ ID NO:6); TH NBS forward, 5′-[…]-3′ (SEQ ID NO:7), reverse, 5′-[…]-3′ (SEQ ID NO:8); TH PBS forward, 5′-[…]-3′ (SEQ ID NO:9), reverse, 5′-[…]-3′ (SEQ ID NO:10); GAPDH forward, 5′-[…]-3′ (SEQ ID NO:11), reverse, 5′-TCAGTTCGGAG CCCACACGC-3′ (SEQ ID NO:12).

A further experiment deals with TH. The experiment in a line: TH expression in substantia nigra of GM2S-KO mouse. It counts as in vivo. To be noted: intranasal 5 mg/kg/day for 28 days, 8 months old GM2S-KO mouse. The procedure: as §1
For another experiment, the system named is Nurr1. The experiment is described as follows: Expression and nuclear localization of Nurr1 in substantia nigra pars compacta of A53T PD mouse. It counts as in vivo. Conditions: intranasal 5 mg/kg/day for 28 days. How it is done: as §1

“Also recorded” adds a separate entry of the source.

Data on two substances can be found in patent US20240100076A1, “METHODS AND COMPOSITIONS FOR TREATING NEURODEGENERATIVE DISEASES” (Augusta University Research Institute, Inc., priority 2021, published 2024).

As for monosialodihexosylganglioside [GD3], the “hippocampal NSC (Sox2 positive cell) number” value in [1] was “partially restored hippocampal NSC (Sox2 positive cell) number”. Besides, the “olfactory function (time to uncover the food pellet)” value with 5XFAD mice [2] is listed as “could not enhance olfactory function”. Also, in the experiment with 5XFAD mice [3], the bone area entry was “increased”, the bone mineral content entry is given as “increased” and the bone mineral density result is reported as “increased”. For the same substance, the “SOX2-expressing cells in DG” value in the experiment with 5XFAD mouse brain is “augments self-renewal and multipotent marker, SOX2-expressing cells”. The “NSC pools in DG and SVZ” value in the experiment on NSC pools in DG and SVZ is “augments NSC pools in DG and SVZ”. Further, the VDAC1 expression entry in the experiment with VDAC1 is given as “significantly enhance the expression”. In addition, on aSyn, the “aSyn levels / aSyn accumulation” value is recorded as “partially inhibits”. The “memory function (exploration time of novel object)” value in the experiment with 5XFAD mice [4] is listed as “increased memory function”.
Take monosialotetrahexosylganglioside [GM1]: the “TH expression (mRNA)” value in the experiment with Neuro 2a cells was “dramatically increased the TH expression”. For the same substance, the “olfactory function (time to uncover the food pellet)” value in the experiment with 5XFAD mice [2] is “enhance olfactory function”. In the experiment on 5XFAD mice [3], the bone area entry was “increased”, the bone mineral content result is reported as “increased” and the bone mineral density result was “increased”. Also, the “BrdU+/doublecortin+ (DCX+) newly generated immature neurons” value in the experiment with 5XFAD mouse brain is “increases BrdU+/doublecortin+ (DCX+) newly generated immature neurons”. The VDAC1 expression result in the experiment on VDAC1 was “significantly enhance the expression”. Besides, the “expression of GM2S” value in the experiment on GM2S was “promoted expression of GM2S”. For the same substance, the “TH expression at substantia nigra” value in experiment [5] is reported as “dramatically restored TH expression”. In addition, the “aSyn levels / aSyn accumulation” value on aSyn is given as “strongly inhibits; also recorded: reduced aSyn levels”. For the same substance, in the experiment with TH gene promoter (anti-AcH3), the “acetylated histone H3 on TH gene promoter (ChIP)” value is “augmentation of acetylated histone H3”. Besides, in the experiment with TH gene promoter (anti-Nurr1), the “recruitment of Nurr1 on the TH promoter region (ChIP)” value is “remarkably recruited”. Besides, the “recruitment of Pitx3 on the TH promoter (ChIP)” value in the experiment with TH gene promoter (anti-Pitx3) is recorded as “also recruited Pitx3”. In addition, in the experiment on TH, the “TH expression in substantia nigra of GM2S-KO mouse” value was “restore the normal TH expression”. Moreover, the “expression and nuclear localization of Nurr1” value in the experiment with Nurr1 is given as “restored”. In the experiment with 5XFAD mice [4], the “memory function (exploration time of novel object)” value is on record as “increased memory function”.
